Assay [1] has as its target T1, flag-tagged HIF1α (AA 786-826) / His6-tagged p300 (AA 323-423) complex (Homo sapiens, UniProt Q09472).
T1 construct: His6-tagged p300 (AA 323-423); made in house; host or cells: E. coli (pETDuet vector)
As to the kind of experiment: HIF1α p300 displacement assay (TR FRET, +CHAPS). Type of assay: binding. The conditions noted are these: read-out: IC50 (nM) (HIF1α_p300 Displacement + CHAPS). The method, boiled down: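 In this TR-FRET displacement format, peptides compete HIF1α C-terminal transactivation domain off p300-CH. They were preincubated 1 h at room temperature with 300 nM complex in HEPES pH 7.4/NaCl buffer with 7.5 mM CHAPS and 1 mM DTT. Anti-His-D2 (4 nM) and anti-Flag-K (0.5 μM) followed for 2 h, and a one-site fit of the fluorescence ratio gave IC50.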
(In general: Time-resolved FRET reads energy transfer from a long-lived donor to a nearby acceptor.)

Assay [2] concerns HRE-bla ME-180 cells. Put plainly: Reporter gene assay (HRE-bla ME-180 HIF reporter, GeneBLAzer). The conditions noted are these: for EC50: 24 hour normoxia. Type of assay: cell-based, human. A digest of the protocol: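 A FRET β-lactamase readout of HIF transcription was used. After compound treatment in 0.3% DMSO/media under normoxic conditions, 20 μl of 6× LiveBLAzer-FRET B/G (CCF4-AM) substrate was added. Plates sat 3 hr at room temperature in the dark and were read at 409 Ex/460Em and 409Ex/530Em on a Synergy 2. Inhibition was compared against DMSO vehicle controls, with chetomin as positive control.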

Assay [3] relates to HRE-bla ME-180 cells. Put plainly: Cell proliferation assay (viability, MTT, 1% FBS). Type of assay: cell-based, human. The method, boiled down:
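Viable cell number was measured with the CellTiter 96 (MTT) kit after compounds were applied for a 16 h normoxic (21% O2) pretreatment, followed by further normoxic or hypoxic (1% O2) culture. Cells: 2×10^4 ME-180 per well, Opti-MEM + 1% FBS, 0.5% DMSO vehicle.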

Bridge positions count the residues as written; N and C are the ends. Square brackets hold non-standard residues; d marks the D form. Peptide text beside a SMILES is read from it. R8 = C=CCCCCCC[C@@](C)(N)C(=O)O; S5 = C=CCCC[C@](C)(N)C(=O)O; Nle = CCCC[C@H](N)C(=O)O

The IC50 is the concentration at which inhibition is half-maximal. One may read the EC50 as the concentration needed to bring the measured effect to its halfway point. In the case of `CCCC[C@H](NC(=O)[C@H](CCC(=O)O)NC(=O)[C@@H](NC(=O)[C@@H](NC(=O)[C@H](CC(C)C)NC(=O)[C@]1(C)CCCC=CCCC[C@](C)(NC(=O)[C@H](CCCNC(=N)N)NC(=O)[C@H](CC(=O)O)NC(=O)[C@@H](NC(=O)[C@H](Cc2ccccc2)NC(C)=O)[C@@H](C)CC)C(=O)N[C@@H](C(C)C)C(=O)N[C@@H](CC(C)C)C(=O)N[C@@H](CCCC)C(=O)N1)C(C)C)[C@@H](C)CC)C(=O)N[C@@H](C)C(=O)N[C@@H](CC(C)C)C(N)=O` [SP-156] (Ac-FIDR[S5]VL[Nle][S5]LVIE[Nle]AL-NH2; staple 5-9), the IC50 in assay [1] fell in the range of 200 to 400 nM. In addition, in assay [2], the “18 h Avg % max inhibition at top conc (HIF Rptr-24 hrs normoxia) (μM)” value (from here on “18 h Avg % max inhibition at top conc”) is “++ (≤10 but <25: ++)” and the EC50 was > 30 µM. Further, the “Viability 1% FBS AVG (MTT V3-24 hr Normoxia) (μM)” value (shortened to “Viability 1% FBS AVG”) in assay [3] is “++++ (≥30: ++++)”.
For `CC[C@H](C)[C@H](NC(=O)[C@H](Cc1ccccc1)NC(C)=O)C(=O)N[C@@H](CC(=O)O)C(=O)N[C@@H](CCC(=O)O)C(=O)N[C@]1(C)CCCCCCC=CCCC[C@@](C)(C(=O)N[C@@H](CCC(=O)O)C(=O)N[C@@H](CCSC)C(=O)N[C@@H](C)C(=O)N[C@@H](CC(C)C)C(=O)N[C@@H](CC(=O)O)C(N)=O)NC(=O)[C@H](C(C)C)NC(=O)[C@H](CC(C)C)NC(=O)[C@H](CO)NC(=O)[C@H](CCSC)NC(=O)[C@H](CC(C)C)NC(=O)[C@H](C(C)C)NC1=O` [SP-176] (Ac-FIDE[R8]VLMSLV[S5]EMALD-NH2; staple 5-12), the IC50 in assay [1] is > 700 nM. In assay [2], the “18 h Avg % max inhibition at top conc” value is reported as “++++ (≥50: ++++)” and the EC50 was > 30 µM. Moreover, in assay [3], the “Viability 1% FBS AVG” value was “++++ (≥30: ++++)”.
On to `CC[C@H](C)[C@H](NC(=O)[C@H](Cc1ccccc1)NC(C)=O)C(=O)N[C@@H](CC(=O)O)C(=O)N[C@@H](CCC(=O)O)C(=O)N[C@]1(C)CCCCCCC=CCCC[C@@](C)(C(=O)N[C@@H](CCC(=O)O)C(=O)N[C@@H](CCSC)C(=O)N[C@@H](C)C(=O)N[C@@H](CC(C)C)C(N)=O)NC(=O)[C@H](C(C)C)NC(=O)[C@H](CC(C)C)NC(=O)[C@H](CO)NC(=O)[C@H](CCSC)NC(=O)[C@H](CC(C)C)NC(=O)[C@H](C(C)C)NC1=O` [SP-177] (Ac-FIDE[R8]VLMSLV[S5]EMAL-NH2; staple 5-12), for which, in assay [1], the concentration for half-maximal inhibition (IC50) lay within 400 to 700 nM. For the same compound, in assay [2], the “18 h Avg % max inhibition at top conc” value is reported as “++++ (≥50: ++++)” and the EC50 lay in the range of 5 to 15 µM. The “Viability 1% FBS AVG” value in assay [3] is on record as “+++ (≤15 but <30: +++)”.
As for `CCCC[C@H](NC(=O)[C@H](C)NC(=O)[C@]1(C)CCCC=CCCCCCC[C@@](C)(NC(=O)[C@H](CCC(=O)O)NC(=O)[C@H](CC(=O)O)NC(=O)[C@@H](NC(=O)[C@H](Cc2ccccc2)NC(C)=O)[C@@H](C)CC)C(=O)N[C@@H](C(C)C)C(=O)N[C@@H](CC(C)C)C(=O)N[C@@H](CCCC)C(=O)N[C@@H](CO)C(=O)N[C@@H](CC(C)C)C(=O)N[C@@H](C(C)C)C(=O)N1)C(=O)N[C@@H](C)C(=O)N[C@@H](CC(C)C)C(=O)N[C@@H](CC(=O)O)C(=O)N[C@@H](C)C(=O)N[C@H](C(N)=O)[C@@H](C)CC` [SP-191] (Ac-FIDE[R8]VL[Nle]SLV[S5]A[Nle]ALDAI-NH2; staple 5-12), in assay [1], the IC50 lay within 200 to 400 nM. In assay [2], the “18 h Avg % max inhibition at top conc” value is on record as “++ (≤10 but <25: ++)” and the EC50 was > 30 µM. Besides, in assay [3], the “Viability 1% FBS AVG” value is recorded as “++++ (≥30: ++++)”.
The corresponding values for `CCCC[C@H](NC(=O)[C@H](CCC(=O)O)NC(=O)[C@]1(C)CCCC=CCCCCCC[C@@](C)(NC(=O)[C@H](CCC(=O)O)NC(=O)[C@H](C)NC(=O)[C@@H](NC(=O)[C@H](Cc2ccccc2)NC(C)=O)[C@@H](C)CC)C(=O)N[C@@H](C(C)C)C(=O)N[C@@H](CC(C)C)C(=O)N[C@@H](CCCC)C(=O)N[C@@H](CO)C(=O)N[C@@H](CC(C)C)C(=O)N[C@@H](C(C)C)C(=O)N1)C(=O)N[C@@H](C)C(=O)N[C@@H](CC(C)C)C(=O)N[C@@H](CC(=O)O)C(=O)N[C@@H](C)C(=O)N[C@H](C(N)=O)[C@@H](C)CC` [SP-192] (Ac-FIAE[R8]VL[Nle]SLV[S5]E[Nle]ALDAI-NH2; staple 5-12) are 200 to 400 nM, “++ (≤10 but <25: ++)”, > 30 µM and “++++ (≥30: ++++)”.
Taken in the same sequence, the figures for `CCCC[C@H](NC(=O)[C@H](CCC(=O)O)NC(=O)[C@]1(C)CCCC=CCCCCCC[C@@](C)(NC(=O)[C@H](CCC(=O)O)NC(=O)[C@H](CC(=O)O)NC(=O)[C@@H](NC(=O)[C@H](Cc2ccccc2)NC(C)=O)[C@@H](C)CC)C(=O)N[C@@H](C(C)C)C(=O)N[C@@H](CC(C)C)C(=O)N[C@@H](CCCC)C(=O)N[C@@H](CO)C(=O)N[C@@H](CC(C)C)C(=O)N[C@@H](C(C)C)C(=O)N1)C(=O)N[C@@H](C)C(=O)N[C@@H](CC(C)C)C(N)=O` [SP-195] (Ac-FIDE[R8]VL[Nle]SLV[S5]E[Nle]AL-NH2; staple 5-12) were 400 to 700 nM, “++++ (≥50: ++++)”, ≤ 5 µM and “++ (≤5 but <15: ++)”.
In the case of `CCCC[C@H](NC(=O)[C@H](C)NC(=O)[C@]1(C)CCCC=CCCCCCC[C@@](C)(NC(=O)[C@H](CCC(=O)O)NC(=O)[C@H](CC(=O)O)NC(=O)[C@@H](NC(=O)[C@H](Cc2ccccc2)NC(C)=O)[C@@H](C)CC)C(=O)N[C@@H](C(C)C)C(=O)N[C@@H](CC(C)C)C(=O)N[C@@H](CCCC)C(=O)N[C@@H](CO)C(=O)N[C@@H](CC(C)C)C(=O)N[C@@H](C(C)C)C(=O)N1)C(=O)N[C@@H](C)C(=O)N[C@@H](CC(C)C)C(N)=O` [SP-196] (Ac-FIDE[R8]VL[Nle]SLV[S5]A[Nle]AL-NH2; staple 5-12), in assay [1], the IC50 was in the range of 200 to 400 nM. Also, in assay [2], the “18 h Avg % max inhibition at top conc” value is recorded as “++++ (≥50: ++++)” and the 50% effective concentration (EC50) is ≤ 5 µM. In addition, the “Viability 1% FBS AVG” value in assay [3] is recorded as “++++ (≥30: ++++)”.
Taken in the same sequence, the figures for `CCCC[C@H](NC(=O)[C@H](CCC(=O)O)NC(=O)[C@]1(C)CCCC=CCCCCCC[C@@](C)(NC(=O)[C@H](CCC(=O)O)NC(=O)[C@H](C)NC(=O)[C@@H](NC(=O)[C@H](Cc2ccccc2)NC(C)=O)[C@@H](C)CC)C(=O)N[C@@H](C(C)C)C(=O)N[C@@H](CC(C)C)C(=O)N[C@@H](CCCC)C(=O)N[C@@H](CO)C(=O)N[C@@H](CC(C)C)C(=O)N[C@@H](C(C)C)C(=O)N1)C(=O)N[C@@H](C)C(=O)N[C@@H](CC(C)C)C(N)=O` [SP-197] (Ac-FIAE[R8]VL[Nle]SLV[S5]E[Nle]AL-NH2; staple 5-12) were > 700 nM, “++++ (≥50: ++++)”, 5 to 15 µM and “++++ (≥30: ++++)”.
For `CCCC[C@@H]1NC(=O)[C@H](CC(C)C)NC(=O)[C@](C)(NC(=O)[C@H](CCC(=O)O)NC(=O)[C@H](CCC(=O)O)NC(=O)[C@H](CC(=O)O)NC(=O)[C@@H](NC(=O)[C@H](Cc2ccccc2)NC(C)=O)[C@@H](C)CC)CCCCCCC=CCCC[C@@](C)(C(=O)N[C@@H](CCCC)C(=O)N[C@@H](C)C(=O)N[C@@H](CC(C)C)C(N)=O)NC(=O)[C@H]([C@@H](C)CC)NC(=O)[C@H](C(C)C)NC(=O)[C@H](CC(C)C)NC(=O)[C@H](CO)NC1=O` [SP-199] (Ac-FIDEE[R8]L[Nle]SLVI[S5][Nle]AL-NH2; staple 6-13), the 50% inhibitory concentration (IC50) in assay [1] was in the range of 200 to 400 nM. For the same compound, in assay [2], the “18 h Avg % max inhibition at top conc” value was “+ (<10: +)” and the 50% effective concentration (EC50) is > 30 µM. Also, the “Viability 1% FBS AVG” value in assay [3] is recorded as “++++ (≥30: ++++)”.
The corresponding values for `CCCC[C@@H]1NC(=O)[C@H](CC(C)C)NC(=O)[C@](C)(NC(=O)[C@H](CCC(=O)O)NC(=O)[C@H](CCC(=O)O)NC(=O)[C@H](CC(=O)O)NC(=O)[C@@H](NC(=O)[C@H](Cc2ccccc2)NC(C)=O)[C@@H](C)CC)CCCCCCC=CCCC[C@@](C)(C(=O)N[C@@H](CCCC)C(=O)N[C@@H](C)C(=O)N[C@@H](CC(C)C)C(=O)N[C@@H](CC(=O)O)C(=O)N[C@@H](CCCNC(=N)N)C(=O)N[C@H](C(N)=O)[C@@H](C)CC)NC(=O)[C@H]([C@@H](C)CC)NC(=O)[C@H](C(C)C)NC(=O)[C@H](CC(C)C)NC(=O)[C@H](CO)NC1=O` [SP-200] (Ac-FIDEE[R8]L[Nle]SLVI[S5][Nle]ALDRI-NH2; staple 6-13) are ≤ 200 nM, “++++ (≥50: ++++)”, > 30 µM and “++++ (≥30: ++++)”.
Taken in the same sequence, the figures for `CCCC[C@H](NC(=O)[C@@]1(C)CCCC=CCCCC2(CCCC=CCCC[C@](C)(NC(=O)[C@H](CCC(=O)O)NC(=O)[C@H](CC(=O)O)NC(=O)[C@@H](NC(=O)[C@H](Cc3ccccc3)NC(C)=O)[C@@H](C)CC)C(=O)N[C@@H](C(C)C)C(=O)N[C@@H](CC(C)C)C(=O)N[C@@H](CCC(=O)O)C(=O)N2)C(=O)N[C@@H](CC(C)C)C(=O)N[C@@H](C(C)C)C(=O)N[C@@H]([C@@H](C)CC)C(=O)N1)C(=O)N[C@@H](C)C(=O)N[C@@H](CC(C)C)C(N)=O` (some centres unmarked) [SP-205] were 200 to 400 nM, “+ (<10: +)”, > 30 µM and “++++ (≥30: ++++)”.

The values above are taken from patent US20190225650A1, “PEPTIDOMIMETIC MACROCYCLES AND USE THEREOF IN REGULATING HIF1ALPHA” (AILERON THERAPEUTICS, INC., priority 2013, published 2019).
